Data taken from patent US20150239889A1, “PYRAZOLOPYRIMIDINE COMPOUND” (MITSUBISHI TANABE PHARMA CORPORATION, priority 2012, published 2015).

Target: T1, human HIF-PHD2 (Homo sapiens, UniProt Q9GZT9)
T1 construct: purchased CrystalGenomics Ltd
Experiment: HIF-PHD inhibition assay (fluorescence polarization), human HIF-PHD2
Assay type: biochemical
Settings: 2-oxoglutaric acid 3.33 μmol/L
Outline: (§1)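 Fluorescence polarization was read before and after adding enzyme, and the difference (mP value) taken as enzyme activity. The tracer carried a FAM (5′-fluoresceinamide) tag linked via aminocaproic acid.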

T1 sequence (Q9GZT9 2-426 limits assumed): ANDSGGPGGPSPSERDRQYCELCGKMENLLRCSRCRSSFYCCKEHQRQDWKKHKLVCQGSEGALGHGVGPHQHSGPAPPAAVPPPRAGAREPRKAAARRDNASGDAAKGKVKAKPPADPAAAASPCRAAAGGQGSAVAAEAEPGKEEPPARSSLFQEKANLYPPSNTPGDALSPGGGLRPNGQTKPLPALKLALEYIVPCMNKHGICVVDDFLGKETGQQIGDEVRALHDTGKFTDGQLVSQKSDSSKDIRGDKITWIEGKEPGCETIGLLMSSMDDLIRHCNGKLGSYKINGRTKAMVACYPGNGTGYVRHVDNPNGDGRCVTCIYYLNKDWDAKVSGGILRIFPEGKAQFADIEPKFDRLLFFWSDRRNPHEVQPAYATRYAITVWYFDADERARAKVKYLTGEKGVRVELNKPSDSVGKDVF

Row | SMILES | IC50 [nM]
1 | Cc1ccc(-c2ccc(Cn3ncc4nc(-n5cc(C(=O)O)cn5)nc(O)c43)cc2)c(C)c1 [Example 70] | 11
2 | C[C@H]1CC[C@H](Cn2nc(F)c3nc(-n4cc(C(=O)O)cn4)nc(O)c32)CC1 [Example 218] | 15
3 | CC(C)(Cn1ncc2nc(-n3cc(C(=O)O)cn3)nc(O)c21)Oc1ccc2c(c1)CCCC2 [Example 214] | 17
4 | COc1cc(Cn2ncc3nc(-n4cc(C(=O)O)cn4)nc(O)c32)ccc1-c1ccccc1F [Example 96] | 13
5 | O=C(O)c1cnn(-c2nc(O)c3c(n2)c(Cl)nn3CC2CCCCC2)c1 [Example 222] | 48
6 | Cc1nn([C@@H](C)c2ccc3ccccc3c2)c2c(O)nc(-n3cc(C(=O)O)cn3)nc12 [Example 454] | 30
7 | COc1ccccc1-c1ccc(Cn2ncc3nc(-n4cc(C(=O)O)cn4)nc(O)c32)cc1OC [Example 99] | 37
8 | O=C(O)c1cnn(-c2nc(O)c3c(cnn3CCc3ccc4ccccc4n3)n2)c1 [Example 117] | 37
9 | CC1(C)CCC(Cn2ncc3nc(-n4cc(C(=O)O)cn4)nc(O)c32)CC1 [Example 380] | 20
10 | O=C(O)c1cnn(-c2nc(O)c3c(cnn3Cc3ccc(F)c(C(F)(F)F)c3)n2)c1 [Example 12] | 44
11 | O=C(O)c1cnn(-c2nc(O)c3nn(Cc4ccccc4-c4ccccc4)cc3n2)c1 [Example 241] | 8.7
12 | O=C(O)c1cnn(-c2nc(O)c3c(cnn3CCc3ccc4ccccc4c3)n2)c1 [Example 116] | 21
13 | O=C(O)c1cnn(-c2nc(O)c3c(cnn3CCCOc3ccccc3C(F)(F)F)n2)c1 [Example 173] | 13
14 | O=C(O)c1cnn(-c2nc(O)c3c(cnn3Cc3ccc(-c4c(F)cccc4F)cc3F)n2)c1 [Example 81] | 35
15 | CC1(C)C(Cn2ncc3nc(-n4cc(C(=O)O)cn4)nc(O)c32)C1(C)C [Example 162] | 52
16 | O=C(O)c1cnn(-c2nc(O)c3c(cnn3Cc3ccc(-c4cc(C(F)(F)F)ccc4F)nc3)n2)c1 [Example 105] | 12
17 | Cc1nn(CC2CCCCCC2)c2c(O)nc(-n3cc(C(=O)O)cn3)nc12 [Example 473] | 48
18 | O=C(O)c1cnn(-c2nc(O)c3c(cnn3CCOc3ccc(C(F)(F)F)cc3)n2)c1 [Example 203] | 65
19 | O=C(O)c1cnn(-c2nc(O)c3c(cnn3C[C@H]3CC[C@@H](Oc4ccc(F)cc4)CC3)n2)c1 [Example 150] | 39
20 | O=C(O)c1cnn(-c2nc(O)c3c(cnn3CCCOc3ccc4ccccc4c3)n2)c1 [Example 187] | 12
21 | C[C@H](c1ccccc1)n1ncc2nc(-n3cc(C(=O)O)cn3)nc(O)c21 [Example 16] | 66
22 | Cc1cc(OCCCn2ncc3nc(-n4cc(C(=O)O)cn4)nc(O)c32)cc(C)c1Cl [Example 182] | 22

Target: T2, human HIF-PHD3 (Homo sapiens, UniProt Q9H6Z9)
T2 construct: purchased CrystalGenomics Ltd
T2 sequence (Q9H6Z9 whole entry): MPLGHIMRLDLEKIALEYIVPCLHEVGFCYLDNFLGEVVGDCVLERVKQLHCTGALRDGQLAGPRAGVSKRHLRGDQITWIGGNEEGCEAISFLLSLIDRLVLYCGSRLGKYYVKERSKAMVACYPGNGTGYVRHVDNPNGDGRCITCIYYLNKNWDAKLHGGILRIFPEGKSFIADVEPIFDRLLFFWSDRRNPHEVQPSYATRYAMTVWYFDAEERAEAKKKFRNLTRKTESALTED
Experiment: HIF-PHD inhibition assay (fluorescence polarization), human HIF-PHD3
Assay type: biochemical
Settings: 2-oxoglutaric acid 166 μmol/L
Outline: as §1

Row | SMILES | IC50 [nM]
23 | Cc1ccc(-c2ccc(Cn3ncc4nc(-n5cc(C(=O)O)cn5)nc(O)c43)cc2)c(C)c1 [Example 70] | 110
24 | C[C@H]1CC[C@H](Cn2nc(F)c3nc(-n4cc(C(=O)O)cn4)nc(O)c32)CC1 [Example 218] | 750
25 | CC(C)(Cn1ncc2nc(-n3cc(C(=O)O)cn3)nc(O)c21)Oc1ccc2c(c1)CCCC2 [Example 214] | 220
26 | COc1cc(Cn2ncc3nc(-n4cc(C(=O)O)cn4)nc(O)c32)ccc1-c1ccccc1F [Example 96] | 110
27 | O=C(O)c1cnn(-c2nc(O)c3c(n2)c(Cl)nn3CC2CCCCC2)c1 [Example 222] | 450
28 | Cc1nn([C@@H](C)c2ccc3ccccc3c2)c2c(O)nc(-n3cc(C(=O)O)cn3)nc12 [Example 454] | 730
29 | COc1ccccc1-c1ccc(Cn2ncc3nc(-n4cc(C(=O)O)cn4)nc(O)c32)cc1OC [Example 99] | 200
30 | O=C(O)c1cnn(-c2nc(O)c3c(cnn3CCc3ccc4ccccc4n3)n2)c1 [Example 117] | 520
31 | CC1(C)CCC(Cn2ncc3nc(-n4cc(C(=O)O)cn4)nc(O)c32)CC1 [Example 380] | 400
32 | O=C(O)c1cnn(-c2nc(O)c3c(cnn3Cc3ccc(F)c(C(F)(F)F)c3)n2)c1 [Example 12] | > 3000
33 | O=C(O)c1cnn(-c2nc(O)c3nn(Cc4ccccc4-c4ccccc4)cc3n2)c1 [Example 241] | 370
34 | O=C(O)c1cnn(-c2nc(O)c3c(cnn3CCc3ccc4ccccc4c3)n2)c1 [Example 116] | 190
35 | O=C(O)c1cnn(-c2nc(O)c3c(cnn3CCCOc3ccccc3C(F)(F)F)n2)c1 [Example 173] | 190
36 | O=C(O)c1cnn(-c2nc(O)c3c(cnn3Cc3ccc(-c4c(F)cccc4F)cc3F)n2)c1 [Example 81] | 170
37 | CC1(C)C(Cn2ncc3nc(-n4cc(C(=O)O)cn4)nc(O)c32)C1(C)C [Example 162] | 400
38 | O=C(O)c1cnn(-c2nc(O)c3c(cnn3Cc3ccc(-c4cc(C(F)(F)F)ccc4F)nc3)n2)c1 [Example 105] | 110
39 | Cc1nn(CC2CCCCCC2)c2c(O)nc(-n3cc(C(=O)O)cn3)nc12 [Example 473] | 1200
40 | O=C(O)c1cnn(-c2nc(O)c3c(cnn3CCOc3ccc(C(F)(F)F)cc3)n2)c1 [Example 203] | 170
41 | O=C(O)c1cnn(-c2nc(O)c3c(cnn3C[C@H]3CC[C@@H](Oc4ccc(F)cc4)CC3)n2)c1 [Example 150] | 410
42 | O=C(O)c1cnn(-c2nc(O)c3c(cnn3CCCOc3ccc4ccccc4c3)n2)c1 [Example 187] | 220
43 | C[C@H](c1ccccc1)n1ncc2nc(-n3cc(C(=O)O)cn3)nc(O)c21 [Example 16] | 820
44 | Cc1cc(OCCCn2ncc3nc(-n4cc(C(=O)O)cn4)nc(O)c32)cc(C)c1Cl [Example 182] | 56

System: Hep3B cells
Experiment: EPO production assay (ELISA of culture supernatant)
Assay type: cell-based
Settings: Homo sapiens, 3 μmol/L test compound, 48 hours, relative to control (0.1% DMSO), read-out: EPO production stimulation rate with 3 μmol/L test compound
Outline: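 Hep3B cells (40000/well) switched to MEM with 0.5% FBS and treated with compound (0.1% DMSO) for 48 h at 37 °C. Supernatant EPO measured by ELISA; value is fold stimulation at 3 μmol/L compound over unstimulated control.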

Row | SMILES | fold induction at 3 µM
45 | Cc1ccc(-c2ccc(Cn3ncc4nc(-n5cc(C(=O)O)cn5)nc(O)c43)cc2)c(C)c1 [Example 70] | 24
46 | C[C@H]1CC[C@H](Cn2nc(F)c3nc(-n4cc(C(=O)O)cn4)nc(O)c32)CC1 [Example 218] | 3
47 | CC(C)(Cn1ncc2nc(-n3cc(C(=O)O)cn3)nc(O)c21)Oc1ccc2c(c1)CCCC2 [Example 214] | 6.8
48 | COc1cc(Cn2ncc3nc(-n4cc(C(=O)O)cn4)nc(O)c32)ccc1-c1ccccc1F [Example 96] | 6.8
49 | O=C(O)c1cnn(-c2nc(O)c3c(n2)c(Cl)nn3CC2CCCCC2)c1 [Example 222] | 1.5
50 | Cc1nn([C@@H](C)c2ccc3ccccc3c2)c2c(O)nc(-n3cc(C(=O)O)cn3)nc12 [Example 454] | 2.7
51 | COc1ccccc1-c1ccc(Cn2ncc3nc(-n4cc(C(=O)O)cn4)nc(O)c32)cc1OC [Example 99] | 3.1
52 | O=C(O)c1cnn(-c2nc(O)c3c(cnn3CCc3ccc4ccccc4n3)n2)c1 [Example 117] | 2
53 | CC1(C)CCC(Cn2ncc3nc(-n4cc(C(=O)O)cn4)nc(O)c32)CC1 [Example 380] | 3.9
54 | O=C(O)c1cnn(-c2nc(O)c3c(cnn3Cc3ccc(F)c(C(F)(F)F)c3)n2)c1 [Example 12] | 2.3
55 | O=C(O)c1cnn(-c2nc(O)c3nn(Cc4ccccc4-c4ccccc4)cc3n2)c1 [Example 241] | 1.2
56 | O=C(O)c1cnn(-c2nc(O)c3c(cnn3CCc3ccc4ccccc4c3)n2)c1 [Example 116] | 4
57 | O=C(O)c1cnn(-c2nc(O)c3c(cnn3CCCOc3ccccc3C(F)(F)F)n2)c1 [Example 173] | 7.7
58 | O=C(O)c1cnn(-c2nc(O)c3c(cnn3Cc3ccc(-c4c(F)cccc4F)cc3F)n2)c1 [Example 81] | 5.4
59 | CC1(C)C(Cn2ncc3nc(-n4cc(C(=O)O)cn4)nc(O)c32)C1(C)C [Example 162] | 18
60 | O=C(O)c1cnn(-c2nc(O)c3c(cnn3Cc3ccc(-c4cc(C(F)(F)F)ccc4F)nc3)n2)c1 [Example 105] | 9.5
61 | Cc1nn(CC2CCCCCC2)c2c(O)nc(-n3cc(C(=O)O)cn3)nc12 [Example 473] | 2
62 | O=C(O)c1cnn(-c2nc(O)c3c(cnn3CCOc3ccc(C(F)(F)F)cc3)n2)c1 [Example 203] | 4.5
63 | O=C(O)c1cnn(-c2nc(O)c3c(cnn3C[C@H]3CC[C@@H](Oc4ccc(F)cc4)CC3)n2)c1 [Example 150] | 9
64 | O=C(O)c1cnn(-c2nc(O)c3c(cnn3CCCOc3ccc4ccccc4c3)n2)c1 [Example 187] | 10
65 | C[C@H](c1ccccc1)n1ncc2nc(-n3cc(C(=O)O)cn3)nc(O)c21 [Example 16] | 3.1
66 | Cc1cc(OCCCn2ncc3nc(-n4cc(C(=O)O)cn4)nc(O)c32)cc(C)c1Cl [Example 182] | 9.1
